Measured values taken from patent US20130280279A1, “PHARMACEUTICAL COMPOSITION OF A COMPLEX OF AN ANTI-DIG ANTIBODY AND DIGOXIGENIN THAT IS CONJUGATED TO A PEPTIDE” (HOFFMANN-LA ROCHE INC., priority 2011, published 2013).

Tests used:
[1] = excitation and emission spectra of Cy5 derivatives; type: physicochemical
From the text: To evaluate whether digoxigenation of Cy5 alters its fluorescence features, we compared the excitation and emission spectra of Cy5 and compared it with the spectra of the newly generated Dig-Cy5 and with Dig-Cy5 within a complex with bispecific antibodies.

[2] = target: T1, NPY2 receptor (Homo sapiens, UniProt P49146); assay: cAMP assay: inhibition of Forskolin stimulated cAMP accumulation in HEK293/hNPY2R; type: cell-based
T1 construct: expressed in transfected cells; host or cells: HEK293/hNPY2R (grown under G418 selection)
T1 sequence (P49146 1-381): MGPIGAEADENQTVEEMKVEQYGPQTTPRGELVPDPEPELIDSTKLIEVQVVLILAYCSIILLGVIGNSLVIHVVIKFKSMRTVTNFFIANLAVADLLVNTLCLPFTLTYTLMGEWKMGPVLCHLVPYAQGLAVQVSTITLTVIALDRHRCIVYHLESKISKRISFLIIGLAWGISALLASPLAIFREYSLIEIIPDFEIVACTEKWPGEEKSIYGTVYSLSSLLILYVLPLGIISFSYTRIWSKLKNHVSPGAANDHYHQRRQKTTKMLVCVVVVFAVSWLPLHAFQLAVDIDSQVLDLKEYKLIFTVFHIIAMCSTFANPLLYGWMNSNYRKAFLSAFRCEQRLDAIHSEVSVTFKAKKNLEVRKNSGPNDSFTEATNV
Procedure: To perform the assay, on the first day, medium was discarded, and the monolayer cells were washed with 10 mL PBS per flask (T225). […] The flask was gently tapped and the cell suspension was pooled. Each flask was rinsed with 10 mL plating medium and centrifuged at 1000 rpm for 5 min. The suspension was pooled and counted. […] The plates were incubated at 37° C. overnight. […] The media and reagents were allowed to come to room temperature. […] The cell medium was tapped off with a gentle inversion of the cell plate on a paper towel. 50 μL of stimulation medium was placed per well (each concentration done in four replicates). The plates were incubated at room temperature for 30 min, and the cells were checked under a microscope for toxicity. After 30 min of treatment, the stimulation media was discarded and 50 μL/well of Assay Lysis Buffer (provided in the Tropix kit) was added. […] 20 μL of the lysate was transferred from stimulation plates into the pre-coated antibody plates (384-well) from the Tropix kit. […] The plates were incubated at room temperature while shaking for 1 hour. […] The plates were tapped to dry. […] Signal for 1 sec/well in a Luminometer. (VICTOR-V) was measured.

[3] = serum levels of Dig-peptide after i.v. application, Western Blot; type: in vivo, mice (strain NRMI)
Procedure: To generate Dig-Cy5 complexes, 886.1 nmol of lyophilized DIG-Cy5 were added to 446.4 nmol anti-DIG-Antibody in 20 mM Histidin/140 mM NaCl pH 6.0 in 4 portions within 1 h at RT, slowly shaking. After the addition of the last portion the sample was incubated for a total of 2 h. In case of the DIG-PYY complexes, 691.7 nmol of lyophilized DIG-PYY were added to 364 nmol anti-DIG-Antibody in 20 mM Histidin/140 mM NaCl pH 6.0 and treated equally as the DIG-Cy5 complexes. The samples were applied to a Superdex 200 HiLoad 16/60 prep grade size exclusion column with 20 mM Histidin/140 mM NaCl pH6.0 as mobile phase. Fractions containing the complex were pooled and concentrated to 19.4 mg/ml (DIG-Cy5 complex) and 19.9 mg/ml (DIG-PYY complex) with a centrifugal filtration device (Vivaspin 20, 30 kDa MWCO, GE Healthcare). The protein concentration of the DIG-Cy5 containing sample was determined by the formula 4A280−(A649×CF))×dilution factor)/ε. CF is the correction factor A280nm/A649nm which was determined as 0.008. Loading of the antibody with DIG-Cy5 was calculated as 1.2 moles of DIG-Cy5 per mole antibody with the formula: (A649nm/(εCy5×protein concentration M))×dilution factor. […] All samples were filtered with a PVDF syringe filter (0.22 μm pore size) under sterile conditions.
To analyze the influence on PK parameters of antibody-complexation of the digoxigenated peptide, 32.1 nmol of the peptide DIG-moPYY, or of the corresponding antibody complexated peptide in 20 mM Histidin/140 mM NaCl pH 6.0 were applied to 2 female mice (strain NRMI) for each substance. […] About 0.1 ml blood samples were collected after the following time points: 0.08 h, 2 h and 24 h for Mouse 1 and 0.08 h, 4 h 24 h for Mouse 2. Serum samples of at least 40 μl were obtained after 1 h at RT by centrifugation (9300×g, 3 min, 4° C.). Serum samples were stored at −80° C. […] The reason for that was that we had no direct means to detect the peptide in serum samples. Therefore, we devised a Western-Blot related assay to detect digoxigenated peptide in serum. In a first step, the serum samples were separated on reducing SDS-PAGE. Because sample preparation for that included exposure of the serum to high concentrations of SDS and reducing agents, Dig-peptides can become released from the (completely denatured/unfolded)<Dig> IgG. To mediate the release of peptide from the antibody complex and separate them by SDS-PAGE, 2 μl of each serum sample was diluted in 18 μl 20 mM Histidin/140 mM NaCl pH 6.0, mixed with 6.7 μl of 4×LDS sample buffer and 3 μl of 10× sample reducing agent (NuPAGE, Invitrogen) for 5 min at 95° C. […] Digoxigenated peptides were subsequently detected on the membrane with anti-digoxygenin antibodies. […] Chemiluminescence was detected with the LumiImager F 1 (Roche) with an exposure time of 20 min. […]

[4] = test system: diet-induced obese (DIO) mice; assay: food intake in DIO (diet-induced-obesity) model; type: in vivo, C57Bl/6 mice; details: moPYY 11.05 μMol/kg, antibody-complexed DIG-moPYY 0.62 μMol/kg, up to 96 h post-dosing
Procedure: To determine the effect of NPY2-receptor agonists on food intake in these experiments we applied uncomplexed PYY-derived peptides and antibody complexed peptides to animals (adult male C57Bl/6 mice) in a DIO (diet-induced-obesity) model. The experiments were conducted on adult male C57Bl/6 mice obtained from Jackson laboratories. The mice were placed on a high fat diet (HFD; 60% of dietary kcal as fat, BioServe F3282) for over 20 weeks to induce obesity. The diet-induced obese (DIO) mice were sorted by body weight and 24 h food intake, and housed individually in standard caging at 22° C. in a reversed 12-h light/12-h dark cycle, and were acclimated to these conditions for at least 6 days before start of the experiment. Food (HFD) and water were provided ad libitum throughout the study. Ab-PYY3-37 fusion proteins and the vehicle controls were injected at the beginning of the dark cycle and food intake measured at various time intervals up to 96 h post-dosing (N=6-8 mice/group). Uncomplexed peptide moPYY was applied at concentration of 11.05 μMol/kg. Antibody-complexed DIG-moPYY was applied at a concentration of 0.62 μMol/kg. Thus, the injected molar concentration of the antibody complexed peptide was more than 17-fold lower than that of the uncomplexed peptide. […]

CCN1/C(=C/C=C/C=C/C2=[N+](CCCCCC(=O)O)c3ccc(S(=O)(=O)O)cc3C2(C)C)C(C)(C)c2cc(S(=O)(=O)[O-])ccc21 [Cy5]
Emission maximum [1]: 680 nm | Excitation maximum [1]: 652 nm

CC[C@H](C)[C@H](NC(C)=O)C(=O)N[C@@H](CCCCNC(=O)CCOCCOCCOCCNC(=O)CO[C@H]1CC[C@@]2(C)[C@H](CC[C@@H]3[C@@H]2C[C@@H](O)[C@]2(C)[C@@H](C4=CC(=O)OC4)CC[C@]32O)C1)C(=O)N1CCN(c2ccc3ncn(CC(=O)N[C@@H](CCCNC(=N)N)C(=O)N[C@@H](Cc4c[nH]cn4)C(=O)N[C@@H](Cc4ccc(O)cc4)C(=O)N[C@@H](CC(C)C)C(=O)N[C@@H](CC(N)=O)C(=O)N[C@@H](Cc4c[nH]c5ccccc45)C(=O)N[C@H](C(=O)N[C@H](C(=O)N[C@@H](CCCNC(=N)N)C(=O)N[C@@H](CCC(N)=O)C(=O)N(C)[C@@H](CCCNC(=N)N)C(=O)N[C@@H](Cc4ccc(O)cc4)C(N)=O)[C@@H](C)O)C(C)C)c(=O)c3c2)CC1 [DIG-moPYY]
IC50 [2]: 0.42 nM | Dig-peptide signal in serum (Western Blot, in words) ([3]; 5 min after administration): only in trace amounts | Dig-peptide signal in serum (Western Blot, in words) ([3]; later time points up to 24 hrs after administration): no defined peptide band are detectable

CC[C@H](C)[C@H](NC(C)=O)C(=O)N[C@@H](CCCCNC(=O)CCOCCOCCOCCNC(=O)CO[C@H]1CC[C@@]2(C)[C@H](CC[C@@H]3[C@@H]2C[C@@H](O)[C@]2(C)[C@@H](C4=CC(=O)OC4)CC[C@]32O)C1)C(=O)N1CCN(c2ccc3ncn(CC(=O)N[C@@H](CCCNC(=N)N)C(=O)N[C@@H](Cc4c[nH]cn4)C(=O)N[C@@H](Cc4ccc(O)cc4)C(=O)N[C@@H](CC(C)C)C(=O)N[C@@H](CC(N)=O)C(=O)N[C@@H](Cc4c[nH]c5ccccc45)C(=O)N[C@H](C(=O)N[C@H](C(=O)N[C@@H](CCCNC(=N)N)C(=O)N[C@@H](CCC(N)=O)C(=O)N(C)[C@@H](CCCNC(=N)N)C(=O)N[C@@H](Cc4ccc(O)cc4)C(N)=O)[C@@H](C)O)C(C)C)c(=O)c3c2)CC1 [<Dig> DIGmoPYY]
biological activity in vitro compared to PEG-peptide ([2]; cAMP assay): four fold better | Dig-peptide signal in serum (Western Blot, in words) ([3]; 5 min after administration, listed as <DIG>-DIG-moPYY): strong signals | Dig-peptide signal in serum (Western Blot, in words) ([3]; later time points up to 24 hrs after administration, listed as <DIG>-DIG-moPYY): still detectable with good signals | effect on food intake [4]: strikingly reduced the food-intake
